# Data from PMC5787524, “Discovery of a FLT3 inhibitor LDD1937 as an anti-leukemic agent for acute myeloid leukemia” (Oncotarget, 2017).
# What was measured:
# JAK2 = JAK2 (Homo sapiens, UniProt O60674); assay: In vitro JAK2 kinase assay (HTRF); format: biochemical; settings: mean ± S.D.
# Method: The inhibition of the FLT3 kinase activity was measured with homogeneous, time-resolved fluorescence (HTRF) assays. Recombinant proteins containing the FLT3 kinase domain were purchased from Carna biosciences (Japan). Optimal enzyme, ATP, and substrate concentrations were established with the HTRF KinEASE kit (Cisbio, France) according to the manufacturer’s instructions. The FLT3 enzymes were mixed with serially diluted compounds and peptide substrates in a kinase reaction buffer (50 mM HEPES (pH 7.0), 500 μM ATP, 0.1 mM sodium orthovanadate, 5 mM MgCl2, 1 mM DTT, 0.01% bovine serum albumin (BSA), and 0.02% NaN3). After the addition of the reagents for detection, the TR-FRET signal was measured with a Victor multilabel reader (Perkin Elmer, Waltham, MA, USA). The IC50 was calculated with nonlinear regression using Prism version 5.01 (GraphPad). JAK2, JAK3, cMET, and RET in vitro kinase assays were also carried out using the HTRF assay kit.
# MV-4-11 cells [1] = assay: Cell viability / growth inhibition (EZ-Cytox), MV-4-11; format: cell-based, human; settings: for GI50: Homo sapiens, MV4-11, 72 h
# Method: The cultured cells were incubated at 37°C with 5% CO2. Cell viability was assessed with a tetrazolium-based assay using the EZ-Cytox Cell Viability Assay kit (DaeilLab, Korea). Briefly, 2,000 ∼ 15,000 cells were plated in 96-well flat bottom plates in 100 µl of medium. The next day, the cells were treated with compounds along with dimethyl sulfoxide (DMSO, Fisher, Waltham, MA, USA) as a negative control. […] After incubation, the optical density (OD) was measured at a wavelength of 450 nm with a Victor multilabel reader (Perkin Elmer, Waltham, MA, USA).
# MCF-7 cells = assay: Cell viability / growth inhibition (EZ-Cytox), MCF-7; format: cell-based; settings: Homo sapiens, MCF7; Table 2, 72 h
# Method: MV-4-11 human acute myeloid leukemia cells were purchased from the American Type Culture Collection (ATCC, Rockville, MD, USA, CRL-9591), and the cells were cultured in IMDM medium (Sigma Co., St. Louis, MO, USA) supplemented with 10% fetal bovine serum, 1% penicillin/streptomycin and 4 mM L-glutamine (Life Technology, Grand Island, NY). Jurkat (human acute T lymphocytic leukemia, ATCC TIB-152) and K562 (human chronic myelogenous leukemia, ATCC CCL-243) cells were cultured in RPMI-1640 (Sigma Co.), and MCF7 (human breast adenocarcinoma, ATCC HTB-22) and PC-3 (human prostate adenocarcinoma, ATCC CRL-1435) cells were cultured in DMEM (Sigma Co.) medium supplemented with 10% fetal bovine serum and 1% penicillin/streptomycin. The cultured cells were incubated at 37°C with 5% CO2. Cell viability was assessed with a tetrazolium-based assay using the EZ-Cytox Cell Viability Assay kit (DaeilLab, Korea). Briefly, 2,000 ∼ 15,000 cells were plated in 96-well flat bottom plates in 100 µl of medium. The next day, the cells were treated with compounds along with dimethyl sulfoxide (DMSO, Fisher, Waltham, MA, USA) as a negative control. […] After incubation, the optical density (OD) was measured at a wavelength of 450 nm with a Victor multilabel reader (Perkin Elmer, Waltham, MA, USA). The IC50 was calculated with nonlinear regression using Prism version 5.01 (GraphPad, La Jolla, CA, USA).
# MV-4-11 cells [2] = assay: Annexin V / propidium iodide flow cytometry (apoptosis); format: cell-based, human; settings: 10 nM, 24 h
# Method: For Annexin V staining, the Alexa Flour® 488 Annexin V/ Dead Cell Apoptosis Kit (ThermoFisher, USA) was used. Cells were seeded in 6-well plates (1 × 10^6 cells per well) and treated with compounds for 24 h. The cells were stained with Annexin V and propidium iodide (PI) according to the manufacturer’s instruction. Then, the cells were subjected to flow cytometry using an Accuri C6 flow cytometer (BD Bio-sciences, San Jose, CA, USA). The data were analyzed with the BD Accuri C6 software.
# MV-4-11 cells [3] = assay: TUNEL assay; format: cell-based, human; settings: 100 nM, 24 h
# Method: For the terminal deoxynucleotidyl transferase dUTP nick end labeling (TUNEL) assay, the APO-DIRECT Kit (BD Biosciences, San Diego, CA, USA) was used. Briefly, 2 × 10^6 cells were harvested and fixed in 2% formaldehyde/PBS solution for 30 min. on ice. The fixed cells were washed twice with PBS and stored in 1 ml of 70 % ethanol at –20°C until use. After washing with wash buffer, the cells were incubated in DNA Labeling Solution (reaction buffer, TdT Enzyme, and FITC dUTP) for 60 min. at 37°C. After labelling, the cells were washed twice with rinse buffer. The cells were incubated with 200 µg/ml RNase A and 5 µg/ml PI for an additional 30 min at room temperature. […] was measured with an Accuri C6 flow cytometer.
# MV-4-11 cells [4] = assay: Cell cycle analysis by PI flow cytometry; format: cell-based, human; settings: 24 h
# Method: For cell cycle analysis, cells were seeded in a 10 cm plate (2 × 10^6 cells per well) and treated with the LDD1937 compound. Then, the cells were fixed with ethanol and treated with RNase A (4 mg/mL) and stained with propidium iodide (PI) (Sigma Co). Cell cycle distribution was analyzed by flow cytometry with an Accuri C6 flow cytometer.
# [5] = tested on: cyclin D1 level in MV-4-11 cells; assay: Cyclin D1 western blot; format: cell-based, human; settings: MV-4-11, 16 h, from as low as 10 nM
# Method: Cells were lysed in SDS Lysis buffer (12 mM Tris-Cl, pH 6.8, 5% glycerol, and 0.4% SDS), and the protein concentrations were measured with the SMART BCA Protein Assay kit (iNtRON Biotechnology, Korea). The proteins were resolved with SDS-polyacrylamide gel electrophoresis followed by transfer to PVDF membranes (Millipore, Billerica, MA, USA) and incubated overnight with the appropriate antibodies. The antibodies used were as follows: phospho-STAT5 (p-STAT5; rabbit polyclonal IgG; #9351, 1:1,000), cyclin D1 (rabbit polyclonal IgG; #2922, 1:1,000), and PARP (rabbit polyclonal IgG; #9542, 1:1,000) from Cell Signaling Technology (Danver, MA, USA), STAT5 (rabbit polyclonal IgG; #sc-835, 1:1,000) from Santa Cruz (Santa Cruz, CA, USA), and β-actin (mouse monoclonal IgG; # A5441, 1:5000) from Sigma-Aldrich. Goat anti-rabbit IgG (#111-035-003; 1;5,000) and anti-mouse IgG (#115-035-033; 1:5,000) secondary antibodies were obtained from Jackson ImmunoResearch Laboratories, Inc. (West Grove, PA, USA).
# leukemic cells = assay: Differentiation of leukemic cells (Wright-Giemsa staining); format: cell-based; settings: data not shown
# JAK2, sequence (O60674 whole entry, species assumed, the tested form may be a part): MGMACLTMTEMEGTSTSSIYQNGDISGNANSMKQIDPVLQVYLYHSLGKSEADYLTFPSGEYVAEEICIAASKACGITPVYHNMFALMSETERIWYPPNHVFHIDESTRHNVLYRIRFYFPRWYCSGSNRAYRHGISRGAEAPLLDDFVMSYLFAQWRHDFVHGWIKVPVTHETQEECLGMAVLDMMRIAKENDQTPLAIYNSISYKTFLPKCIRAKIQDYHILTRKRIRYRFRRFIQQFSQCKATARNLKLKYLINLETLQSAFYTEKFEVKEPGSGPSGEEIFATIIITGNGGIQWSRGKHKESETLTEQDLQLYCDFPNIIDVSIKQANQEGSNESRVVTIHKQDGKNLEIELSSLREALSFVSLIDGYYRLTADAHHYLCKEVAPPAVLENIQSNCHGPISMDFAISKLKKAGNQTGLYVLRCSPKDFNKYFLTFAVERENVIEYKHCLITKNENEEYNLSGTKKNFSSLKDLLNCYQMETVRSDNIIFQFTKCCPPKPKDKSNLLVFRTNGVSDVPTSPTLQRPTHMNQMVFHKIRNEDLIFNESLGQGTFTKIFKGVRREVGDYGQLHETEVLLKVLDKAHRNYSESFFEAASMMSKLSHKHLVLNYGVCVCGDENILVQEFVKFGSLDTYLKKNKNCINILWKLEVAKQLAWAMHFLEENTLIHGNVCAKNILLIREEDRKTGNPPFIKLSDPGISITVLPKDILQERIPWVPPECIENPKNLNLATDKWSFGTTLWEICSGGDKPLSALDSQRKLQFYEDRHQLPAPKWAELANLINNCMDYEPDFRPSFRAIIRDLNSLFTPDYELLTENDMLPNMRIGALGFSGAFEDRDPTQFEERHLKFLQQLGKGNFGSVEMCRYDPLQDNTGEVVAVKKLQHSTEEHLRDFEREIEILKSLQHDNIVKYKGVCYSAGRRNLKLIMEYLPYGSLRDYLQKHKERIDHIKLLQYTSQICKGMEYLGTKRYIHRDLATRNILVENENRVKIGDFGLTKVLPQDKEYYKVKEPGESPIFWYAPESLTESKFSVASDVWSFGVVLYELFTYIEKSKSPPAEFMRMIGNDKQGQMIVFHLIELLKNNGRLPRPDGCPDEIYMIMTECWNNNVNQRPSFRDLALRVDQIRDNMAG
smiles,measurement,setting,value
"COC(=O)c1ccc2c(c1)/C(=C1/Nc3ccccc3/C1=N\OCCN1CCNCC1)C(=O)N2.Cl.Cl [LDD1937, methyl (2Z,3E)-2′-oxo-3-((2-(piperazin-1-yl)ethoxy)imino)-[2,3′-biindolinylidene]-5′-carboxylate dihydrochloride]",IC50,JAK2,523 ± 72.7 nM
same,enhancement of MV-4-11 activity compared to the initial compound 1,MV-4-11 cells [1],40 fold
same,GI50,"MV-4-11 cells [1]; 72 h, called IC50 in supplementary text",1 ± 0.15 nM
same,GI50,"MV-4-11 cells [1]; Table 2, 72 h, mean ± S.D.",1.2 ± 0.2 nM
same,GI50,MCF-7 cells,2140 ± 160 nM
same,"cells in upper right quadrant (Annexin V+ and PI+, late apoptotic)",MV-4-11 cells [2],24.8%
same,TUNEL positive cell population,MV-4-11 cells [3],32.1%
same,G0/G1 Percent,MV-4-11 cells [4]; 10 nM,54.4%
same,Sub-G1 Percent,MV-4-11 cells [4]; 100 nM,31.3%
same,cyclin D1 level,[5],dose-dependent reduction of the cyclin D level
same,differentiated cells (Wright-Giemsa staining),leukemic cells,differentiated cells were not observed
